Test results from the NIST ThermoML archive (doi:10.1016/j.jct.2019.01.016).
Where “and” joins values, the source holds several entries; their conditions need not be identical. Identical values can stand only once.

Tests used:
[1] = molar enthalpy of vaporization or sublimation; details: Static calorimetry
[2] = molar heat capacity at constant pressure; details: 101.33 kPa, Crystal 2, DSC
[3] = for mass density: 101.33 kPa, X-ray diffraction; for Normal melting temperature: DTA
[4] = Molar enthalpy of transition or fusion; details: DSC

[C-]#[O+].[C-]#[O+].[C-]#[O+].[C-]#[O+].[C-]#[O+].[C-]#[O+].[C-]#[O+].[C-]#[O+].[C-]#[O+].[C-]#[O+].[Re].[Re] [decacarbonyldirhenium]
Details	mass density [kg/m3]	molar enthalpy [kJ/mol]
[1], 332.8 K, Crystal 2	–	96
[3], 293 K, Crystal	2932	–

Details	Molar enthalpy of transition or fusion [kJ/mol]	Normal melting temperature [°C]	Triple point temperature [K]	molar heat capacity at constant pressure [J/K/mol]
[2], 298.15 K	–	–	–	391.8
[2], 303.15 K	–	–	–	396.5
[2], 308.15 K	–	–	–	401.1
[2], 313.15 K	–	–	–	405.5
[2], 318.15 K	–	–	–	409.8
[2], 323.15 K	–	–	–	413.9
[2], 328.15 K	–	–	–	417.9
[2], 333.15 K	–	–	–	421.8
[2], 338.15 K	–	–	–	425.5
[3], Crystal 1	–	182.01	–	–
[3], Crystal 2, DSC	–	–	366.75	–
[4], Crystal 1	4.18	–	–	–
[4], Crystal 2	15.3	–	–	–

[CH3][Re](=[O])(=[O])=[O] [methyltrioxorhenium]
Crystal
Details	mass density, 167 K [kg/m3]	mass density, 214 K [kg/m3]	mass density, 296 K	molar enthalpy, 298 K [kJ/mol]
[1]	–	–	–	70.24
[3]	4254	4199	4124 kg/m3 and 4132 kg/m3	–

Crystal
Details	Molar enthalpy of transition or fusion [kJ/mol]	Normal melting temperature [°C]
[3]	–	112.59
[4]	19.8	–
